Entries after “also recorded” stand apart in the source; their conditions may differ.

The subject of one experiment is C2C12 cells. Nature of the experiment: High-throughput screen for small molecules that augment BMP-2 induced ALP expression (osteoblast conversion). The class given is cell-based, mouse. The conditions noted are these: DM + BMP-2 + compound at target concentration 1 μM, 72 h, duplicate; ImageJ, Digilab and visual inspection analyses. The protocol: The level of alkaline phosphatase (ALP) activity measured colorimetrically was scored in all wells using three criteria (see Exemplary materials and methods in the Examples section). […] ALP intensity images were acquired using a Digilab Plate reader. Images were analyzed using three independent criteria and considered for secondary screening and validation in the MC3T3 pre-osteoblast cell line Enhancement of the mRNA and protein levels of the mature osteoblast markers RunX2 and osterix was tested. *Plates were run in duplicate.
C2C12 cells were plated at 750 cells per well in a 384-square well plate and were allowed to adhere for 24 h in growth media (GM). […] After 72 h, cells were fixed and stained for alkaline phosphatase (ALP) and DAPI for nuclei visualization. […] It was next sought to screen a larger set of small molecules from more diverse backgrounds to identify enhancement of osteoblast conversion.
Cell culture: C2C12. The C2C12 myoblast cell line (ATCC) was maintained in growth medium (GM) that consisted of high glucose DMEM (Gibco), 10% fetal bovine serum (Gibco), and 1% pen/strep (Invitrogen). […] Negative controls were switched to DM but only received 20 mM acetic acid. Cells were passaged approximately every two days and were kept below 70% con-fluency, as per manufacturer's instructions. MC3T3-E1. MC3T3-E1 subclone 4 pre-osteoblast cells (ATCC #CRL-2593) were maintained in minimum essential medium, alpha modification (Invitrogen #A10490-01) containing 10% FBS and 1% penicillin/streptomycin. […] All cell lines used were maintained in a 37° C. incubator at 5% CO2.
384-square well plates (BD) were used for primary screening. PBS was added to the outermost wells to reduce edge effects. In each plate, 40 wells were used as positive controls, 28 wells were used as negative controls, and the center 240 wells were used for compound testing. All plates were screened in duplicate. The inner 308 wells received 750 cells per well and were allowed to adhere in GM for 24 h. GM was then removed, wells were washed once with PBS, and DM was added to the inner 308 wells. Negative control wells received DM. […] DMSO was used as the vehicle for compound addition in this study. DMSO was also added to positive and negative control wells in equimolar amounts.
Cells were initially fixed with a fixative solution that consisted of a 3:10:26 ratio mixture of 37% formaldehyde: citrate: acetone. Colorimetric detection of osteoblasts was achieved using the alkaline phosphatase (ALP) kit obtained from Sigma-Aldrich (Catalog #86C). Cell number was determined based on nuclei staining with DAPI nucleic acid stain as per manufacturer's instructions (Invitrogen).
Well images identifying ALP+ cells were acquired using a MIAS-2 plate reader, as per manufacturer's instructions (Digilab, Holliston, Mass.).
Acquired images were assessed using three different search strategies (ImageJ software, Digilab software, and systematic scanning by eye); each having different sensitivities and specificities with regard to the assay.
Well images were opened with the image software platform ImageJ. Images were normalized on a per plate basis and, since ALP positive cells become darker in a gray scale image, the image darkness was assessed. Images were analyzed using an Area Fraction method whereby a minimum pixel darkness threshold was applied for all image wells. All pixels that were as dark or darker than the threshold applied were converted to black. […] The binary image was then assessed to see percentage of pixels of the image that were black (i.e. Area Fraction). Average Area Fraction from duplicate compound wells was divided by average duplicate nuclei count (as measured by DAPI count in ImageJ) to get Area Fraction on a per-cell basis. This ratio (Area Fraction: Nuclei count) was then compared to positive control wells.
Well images were analyzed using eaZYX Image Analyzer software (Digilab, Holliston, Mass.).

In the next experiment the test system is MC3T3 cells. Kind of experiment: TGFβ1 mediated inhibition of osteoblast differentiation, qRT-PCR of Runx2, Osx and Smad 7. The class given is cell-based, mouse.

Procedure for MC3T3 cells: MC3T3 cells were treated with media containing 1 ng/mL of TGFβ1 for 24 h and then the media were replaced with BMP-2 or BMP-2 with 100 ng/mL rapamycin. RNA was collected 24 h afterwards and analyzed by qRT-PCR and the ΔΔCT method. […] Shown are representative results (average of duplicates) of at least three independent experiments.
Total RNA was extracted by the TRIzol method as recommended by the manufacturer (Invitrogen). Isolated RNA was cleaned up using the Rneasy Kit (Qiagen) and 500 ng of RNA was reverse-transcribed using the High Capacity cDNA Synthesis Kit (Applied Biosystems #4368813). Taqman expression assays were used for detection. The expression of 18S (Applied Biosystems #4319413E) was used for normalization of gene expression values. Real-time primers Runx2, Sp7 (Osx), Bglap1 (Ocn) and Smad 7 were obtained from Applied Biosystems (Mm00501580_ml, Mm00504574_ml, Mm03413826_ml and Mm00484742_ml respectively). Quantification was determined using the ΔΔCT method and normalized to the untreated sample.

For the compound `CCCCC[C@H](O)CC[C@H]1[C@H](O)CC(=O)[C@@H]1CCCCCCC(=O)O` [13, 14-Dihydro-prostaglandin E1], in the experiment with C2C12 cells, the “enhancement of BMP-2 induced ALP expression (screen hit)” value (from here on “enhancement”) was “enhanced ALP expression”. For `CC1=C(/C=C/C(C)=C/C=C/C(C)=C\C(=O)O)C(C)(C)CCC1` [13-cis retinoic acid], in the experiment with C2C12 cells, the “enhancement” value was “identified in all three analyses”. For `CCCCCCCCCCCCCCC[C@@H](O)[C@H](CO)NC(C)=O` [C2 dihydroceramide], the “enhancement” value in the experiment on C2C12 cells is on record as “identified in all three analyses”. Turning to `CC[C@@H]1/C=C(\C)C[C@H](C)C[C@H](OC)[C@H]2O[C@@](O)(C(=O)C(=O)N3CCCC[C@H]3C(=O)O[C@H](/C(C)=C/[C@@H]3CC[C@@H](O)[C@H](OC)C3)[C@H](C)[C@@H](O)CC1=O)[C@H](C)C[C@@H]2OC` [FK-520], the “enhancement” value in the experiment on C2C12 cells is “also identified but was not among the top hits”. With `COC(=O)C1=C(C)NC(C)=C(C(=O)OCCSc2ccccc2)C1C` (stereo not drawn) [PCA 4248], the “enhancement” value in the experiment on C2C12 cells is “identified in all three analyses”. Turning to `C/C(=C\c1ccc(C(=O)O)cc1)c1ccc2c(c1)C(C)(C)CCC2(C)C` [TTNPB], the “enhancement” value in the experiment with C2C12 cells is recorded as “identified in all three analyses”. As for `C=C(c1ccc(C(=O)O)cc1)c1cc2c(cc1C)C(C)(C)CCC2(C)C` [bexarotene], in the experiment on C2C12 cells, the “enhancement” value is recorded as “identified in all three analyses”. `COc1c(C)c2c(c(O)c1C/C=C(\C)CCC(=O)OCCN1CCOCC1)C(=O)OC2` [mycophenolate mofetil]: the “enhancement” value with C2C12 cells was “identified in all three analyses”. Same read-out and setting: with `COc1c(C)c2c(c(O)c1C/C=C(\C)CCC(=O)O)C(=O)OC2` [mycophenolic acid] the entry was “identified in all three analyses”; with `O=C1NC(=O)C(c2ccccc2)(c2ccccc2)N1` [phenytoin], “identified in all three analyses”; with `CCCCC[C@H](O)/C=C/C1=C(CCCCCCC(=O)O)C(=O)CC1` [prostaglandin B1], “enhanced ALP expression”. The same measure, in the same setting: with `CCCCC[C@H](O)/C=C/C1=C(C/C=C\CCCC(=O)O)C(=O)CC1` [prostaglandin B2] the entry was “identified in all three analyses”. Consider `CCCCC[C@H](O)/C=C/[C@H]1[C@H](O)CC(=O)[C@@H]1CCCCCCC(=O)O` [prostaglandin E1], for which the “enhancement” value in the experiment on C2C12 cells is listed as “identified in all three analyses; also recorded: enhanced ALP expression”. For the compound `CCCCC[C@H](O)/C=C/[C@H]1[C@H](O)CC(=O)[C@@H]1C/C=C\CCCC(=O)O` [prostaglandin E2], in the experiment on C2C12 cells, the “enhancement” value is “enhanced ALP expression”. As to `C=C[C@H]1C[N@@]2CC[C@H]1C[C@H]2[C@H](O)c1ccnc2ccc(OC)cc12` [quinine], the “enhancement” value in the experiment with C2C12 cells is reported as “identified in all three analyses”.

In the case of `Oc1ccc(C=Cc2cc(O)cc(O)c2)cc1` [resveratrol], the “enhancement” value in the experiment with C2C12 cells is recorded as “notable hits among the top 45 compounds”. For the compound “TGFβ1: transforming growth factor (TGF)-β1, anti-inflammatory cytokine used as antagonist of osteoblast differentiation”, in the experiment on MC3T3 cells (TGFβ1 added to MC3T3 cells), the “Runx2 and Osx mRNA, basal levels” value is recorded as “reduces basal levels”. Further, the Smad-7 levels result in the experiment with MC3T3 cells (factor alone) is “no apparent affect”.
